Data as given in patent US20170120592A1, “INK JET RECORDING METHOD AND INK JET RECORDING APPARATUS” (CANON KABUSHIKI KAISHA, priority 2015, published 2017).

Test: Water-solubility of dye
Assay type: physicochemical
Settings: maximum mass of the dye in a sodium salt form that can be dissolved in 100 g of pure water at 20° C.

Row | water-solubility of the dye | Compound
1 | Blue 9 (40 g) | CCN(Cc1cccc(S(=O)(=O)[O-])c1)c1ccc(C(=C2C=CC(=[N+](CC)Cc3cccc(S(=O)(=O)[O-])c3)C=C2)c2ccccc2S(=O)(=O)[O-])cc1.[Na+].[Na+] [C.I. Acid Blue 9]
2 | (30 g) | C.I. Direct Blue 199
3 | (21 g) | C.I. Direct Red 249
4 | (14 g) | C.I. Direct Red 289
5 | (10 g) | C.I. Direct Yellow 86
